In PubChem BioAssay AID1919014 (Molecular Pharmacology Branch, DTP, NCI, 2023):

System: NCI-H1341 complex spheroids, percent test/control
Assay: Anticancer human tumor NCI-H1341 cell line growth inhibition [AhR];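 also: spheroids exposed to agents for seven days before readout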
Conditions: for IC50: curve of first compound; for viability, T/C: stronger effect = lower value
In short: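 Complex tumor spheroids co-cultured with HUVEC and human MSC stroma; AhR antagonists tested in combination with standard-of-care and investigational agents. Top concentration at or near clinical Cmax (else 10 microM), half-log dilutions; growth expressed as percent test/control.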

[1] = second compound 0.1 µM, first compound 0.00949 µM
[2] = second compound 0.1 µM, first compound 0.03 µM
[3] = second compound 0.1 µM, first compound 0.0949 µM
[4] = second compound 0.1 µM, first compound 0.3 µM
[5] = second compound 0.1 µM, first compound 0.949 µM
[6] = second compound 0.1 µM, first compound 3 µM
[7] = second compound 0.316 µM, first compound 0.00949 µM
[8] = second compound 0.316 µM, first compound 0.03 µM
[9] = second compound 0.316 µM, first compound 0.0949 µM
[10] = second compound 0.316 µM, first compound 0.3 µM
[11] = second compound 0.316 µM, first compound 0.949 µM
[12] = second compound 0.316 µM, first compound 3 µM
[13] = second compound 1 µM, first compound 0.00949 µM
[14] = second compound 1 µM, first compound 0.03 µM
[15] = second compound 1 µM, first compound 0.0949 µM
[16] = second compound 1 µM, first compound 0.3 µM
[17] = second compound 1 µM, first compound 0.949 µM
[18] = second compound 1 µM, first compound 3 µM
[19] = second compound 3.16 µM, first compound 0.00949 µM
[20] = second compound 3.16 µM, first compound 0.03 µM
[21] = second compound 3.16 µM, first compound 0.0949 µM
[22] = second compound 3.16 µM, first compound 0.3 µM
[23] = second compound 3.16 µM, first compound 0.949 µM
[24] = second compound 3.16 µM, first compound 3 µM
[25] = second compound 10 µM, first compound 0.00949 µM
[26] = second compound 10 µM, first compound 0.03 µM
[27] = second compound 10 µM, first compound 0.0949 µM
[28] = second compound 10 µM, first compound 0.3 µM
[29] = second compound 10 µM, first compound 0.949 µM
[30] = second compound 10 µM, first compound 3 µM

CC1COCCN1c1cc(C2(S(C)(=N)=O)CC2)nc(-c2ccnc3[nH]ccc23)n1 (stereo not given) + CC(CO)NC(=O)c1cc(-c2ccc(Cl)cc2)nn(-c2cnn(C)c2)c1=O
IC50 (second compound 0.1 µM): 1.6 µM | IC50 (second compound 0.316 µM): 1.09 µM | IC50 (second compound 1 µM): 1.54 µM | IC50 (second compound 3.16 µM): 1.49 µM | IC50 (second compound 10 µM): 0.956 µM | viability, T/C (second compound 0.1 µM, first compound 0.0316 µM): 89.6% | viability, T/C (second compound 0.1 µM, first compound 0.1 µM): 83.2% | viability, T/C (second compound 0.1 µM, first compound 0.316 µM): 96.7% | viability, T/C (second compound 0.1 µM, first compound 1 µM): 64.9% | viability, T/C (second compound 0.1 µM, first compound 3.16 µM): 29.7% | viability, T/C (second compound 0.1 µM, first compound 10 µM): 21.9% | viability, T/C (second compound 0.316 µM, first compound 0.0316 µM): 78.8% | viability, T/C (second compound 0.316 µM, first compound 0.1 µM): 93.5% | viability, T/C (second compound 0.316 µM, first compound 0.316 µM): 70.1% | viability, T/C (second compound 0.316 µM, first compound 1 µM): 51.1% | viability, T/C (second compound 0.316 µM, first compound 3.16 µM): 32.4% | viability, T/C (second compound 0.316 µM, first compound 10 µM): 20.4% | viability, T/C (second compound 1 µM, first compound 0.0316 µM): 77.3% | viability, T/C (second compound 1 µM, first compound 0.1 µM): 88.5% | viability, T/C (second compound 1 µM, first compound 0.316 µM): 88.4% | viability, T/C (second compound 1 µM, first compound 1 µM): 57.1% | viability, T/C (second compound 1 µM, first compound 3.16 µM): 35.5% | viability, T/C (second compound 1 µM, first compound 10 µM): 19.6% | viability, T/C (second compound 3.16 µM, first compound 0.0316 µM): 95.8% | viability, T/C (second compound 3.16 µM, first compound 0.1 µM): 86.3% | viability, T/C (second compound 3.16 µM, first compound 0.316 µM): 87.8% | viability, T/C (second compound 3.16 µM, first compound 1 µM): 58.6% | viability, T/C (second compound 3.16 µM, first compound 3.16 µM): 31.7% | viability, T/C (second compound 3.16 µM, first compound 10 µM): 17.6% | viability, T/C (second compound 10 µM, first compound 0.0316 µM): 83.2% | viability, T/C (second compound 10 µM, first compound 0.1 µM): 84.9% | viability, T/C (second compound 10 µM, first compound 0.316 µM): 67.9% | viability, T/C (second compound 10 µM, first compound 1 µM): 52.1% | viability, T/C (second compound 10 µM, first compound 3.16 µM): 24.8% | viability, T/C (second compound 10 µM, first compound 10 µM): 18.8%

CCN(c1cc(-c2ccc(CN3CCOCC3)cc2)cc(C(=O)NCc2c(C)cc(C)[nH]c2=O)c1C)C1CCOCC1 + CC(CO)NC(=O)c1cc(-c2ccc(Cl)cc2)nn(-c2cnn(C)c2)c1=O
IC50 (second compound 0.1 µM): > 3 µM | IC50 (second compound 0.316 µM): > 3 µM | IC50 (second compound 1 µM): > 3 µM | IC50 (second compound 3.16 µM): > 3 µM | IC50 (second compound 10 µM): > 3 µM | viability, T/C [1]: 89.1% | viability, T/C [2]: 72.4% | viability, T/C [3]: 84% | viability, T/C [4]: 68.1% | viability, T/C [5]: 75.2% | viability, T/C [6]: 57.6% | viability, T/C [7]: 81.9% | viability, T/C [8]: 77% | viability, T/C [9]: 77.9% | viability, T/C [10]: 65.8% | viability, T/C [11]: 65.7% | viability, T/C [12]: 59.7% | viability, T/C [13]: 91.7% | viability, T/C [14]: 73.6% | viability, T/C [15]: 78% | viability, T/C [16]: 63% | viability, T/C [17]: 63.1% | viability, T/C [18]: 62% | viability, T/C [19]: 84.1% | viability, T/C [20]: 82.5% | viability, T/C [21]: 74.9% | viability, T/C [22]: 71.4% | viability, T/C [23]: 61.9% | viability, T/C [24]: 62.4% | viability, T/C [25]: 67.5% | viability, T/C [26]: 79.2% | viability, T/C [27]: 73.3% | viability, T/C [28]: 70.4% | viability, T/C [29]: 65.7% | viability, T/C [30]: 57.4%

Nc1ncn(C2CC(O)C(CO)S2)c(=O)n1 (stereo not given) + CC(CO)NC(=O)c1cc(-c2ccc(Cl)cc2)nn(-c2cnn(C)c2)c1=O
IC50 (second compound 0.1 µM): 0.271 µM | IC50 (second compound 0.316 µM): 0.22 µM | IC50 (second compound 1 µM): 0.223 µM | IC50 (second compound 3.16 µM): 0.214 µM | IC50 (second compound 10 µM): 0.234 µM | viability, T/C (second compound 0.1 µM, first compound 0.000949 µM): 89.1% | viability, T/C (second compound 0.1 µM, first compound 0.003 µM): 94.3% | viability, T/C [1]: 91.2% | viability, T/C [2]: 89.3% | viability, T/C [3]: 63.6% | viability, T/C [4]: 48.7% | viability, T/C (second compound 0.316 µM, first compound 0.000949 µM): 94.6% | viability, T/C (second compound 0.316 µM, first compound 0.003 µM): 91.5% | viability, T/C [7]: 84.5% | viability, T/C [8]: 89.8% | viability, T/C [9]: 78.3% | viability, T/C [10]: 39.2% | viability, T/C (second compound 1 µM, first compound 0.000949 µM): 75.3% | viability, T/C (second compound 1 µM, first compound 0.003 µM): 105% | viability, T/C [13]: 91.8% | viability, T/C [14]: 79.6% | viability, T/C [15]: 76.2% | viability, T/C [16]: 41.3% | viability, T/C (second compound 3.16 µM, first compound 0.000949 µM): 86% | viability, T/C (second compound 3.16 µM, first compound 0.003 µM): 96.1% | viability, T/C [19]: 85.6% | viability, T/C [20]: 82.7% | viability, T/C [21]: 69.2% | viability, T/C [22]: 42% | viability, T/C (second compound 10 µM, first compound 0.000949 µM): 73.3% | viability, T/C (second compound 10 µM, first compound 0.003 µM): 73.1% | viability, T/C [25]: 79.1% | viability, T/C [26]: 69.2% | viability, T/C [27]: 63.6% | viability, T/C [28]: 46%

O=C(C=Cn1cnc(-c2cc(C(F)(F)F)cc(C(F)(F)F)c2)n1)NNc1cnccn1 + CC(CO)NC(=O)c1cc(-c2ccc(Cl)cc2)nn(-c2cnn(C)c2)c1=O
IC50 (second compound 0.1 µM): 0.0473 µM | IC50 (second compound 0.316 µM): 0.0387 µM | IC50 (second compound 1 µM): 0.0534 µM | IC50 (second compound 3.16 µM): 0.0392 µM | IC50 (second compound 10 µM): 0.0322 µM | viability, T/C [1]: 70.1% | viability, T/C [2]: 66% | viability, T/C [3]: 25.8% | viability, T/C [4]: 8.14% | viability, T/C [5]: 7.31% | viability, T/C [6]: 3.24% | viability, T/C [7]: 81.5% | viability, T/C [8]: 56.4% | viability, T/C [9]: 26.9% | viability, T/C [10]: 8.82% | viability, T/C [11]: 4.72% | viability, T/C [12]: 3.56% | viability, T/C [13]: 72.9% | viability, T/C [14]: 76.5% | viability, T/C [15]: 25.3% | viability, T/C [16]: 7.32% | viability, T/C [17]: 5.36% | viability, T/C [18]: 3.2% | viability, T/C [19]: 70.9% | viability, T/C [20]: 56.6% | viability, T/C [21]: 27.3% | viability, T/C [22]: 7.55% | viability, T/C [23]: 4.07% | viability, T/C [24]: 4.94% | viability, T/C [25]: 62.8% | viability, T/C [26]: 51% | viability, T/C [27]: 27.2% | viability, T/C [28]: 8.24% | viability, T/C [29]: 5.11% | viability, T/C [30]: 4.13%
